Values of other authors in patent US5667811A, “Na-K-ATPase inhibiting natriuretic substances” (The Regents of the University of California, priority 1992, dated 1997).
No end group written: not given here.

How the values were obtained:
Na-K-ATPase = conditions: literature
active transport = conditions: literature

Row | Substance | Na-K-ATPase inhibition (Na-K-ATPase) | inhibition of active transport (active transport)
1 | lysophosphatidyl choline | potent Na-K-ATPase inhibitors | 
2 | ANF: atrial natriuretic factor, synthesized or stored in cardiac atria (SLRRSSCFGGRMDRIGAQSGLGCNSFRY; ends and bridges not checked; cysteine pairing not given here; UniProt P01160 124-151, looked up) |  | does not inhibit active transport
